# In ChEMBL document CHEMBL1201861, “Genomics of Drug Sensitity in Cancer screening data, Wellcome Trust Sanger Institute”:
# pIC50: −log10 of the molar value.
# Columns and labels:
# Assay in all cases: cells
# HT-3 = format: functional, cell-based, Homo sapiens; details: Homo sapiens, HT-3;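 note: growth inhibition measured with a cell viability readout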
# Description: SANGER: Inhibition of human HT-3 cell growth in a cell viability assay.
# SK-N-FI = format: functional, cell-based, Homo sapiens; details: Homo sapiens, SK-N-FI;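 note: cell viability assay measuring growth inhibition of human SK-N-FI cells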
# Description: SANGER: Inhibition of human SK-N-FI cell growth in a cell viability assay.
# LAN-6 = format: functional, cell-based, Homo sapiens; details: Homo sapiens, LAN-6;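 note: growth inhibition of LAN-6 cells, determined with a cell viability assay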
# Description: SANGER: Inhibition of human LAN-6 cell growth in a cell viability assay.
# NCI-H1838 = format: functional, cell-based, Homo sapiens; details: Homo sapiens, NCI-H1838;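 note: growth inhibition of NCI-H1838 cells, determined with a cell viability readout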
# Description: SANGER: Inhibition of human NCI-H1838 cell growth in a cell viability assay.
# GCT = format: functional, cell-based, Homo sapiens; details: Homo sapiens, GCT;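 note: GCT cell line proliferation inhibition, read out with a cell viability assay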
# Description: SANGER: Inhibition of human GCT cell growth in a cell viability assay.
# LB1047-RCC = format: functional, cell-based, Homo sapiens; details: Homo sapiens, LB1047-RCC;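 note: inhibition of cell growth, determined with a cell viability assay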
# Description: SANGER: Inhibition of human LB1047-RCC cell growth in a cell viability assay.
# HSC-3 = format: functional, cell-based, Homo sapiens; details: Homo sapiens, HSC-3
# Description: SANGER: Inhibition of human HSC-3 cell growth in a cell viability assay.
# MOLT-16 = format: functional, cell-based; details: Homo sapiens;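 note: growth inhibition of human MOLT-16 cells, read out with a cell viability assay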
# Description: SANGER: Inhibition of human MOLT-16 cell growth in a cell viability assay.
# SW-620 = format: functional, cell-based, Homo sapiens; details: Homo sapiens, SW-620;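 note: growth inhibition of human SW-620 cells, measured by a cell viability assay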
# Description: SANGER: Inhibition of human SW620 cell growth in a cell viability assay.
# KYSE-520 cell line = format: functional, cell-based, Homo sapiens; details: Homo sapiens, KYSE-520;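 note: growth inhibition of human KYSE-520 cells, read out with a viability assay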
# Description: SANGER: Inhibition of human KYSE-520 cell growth in a cell viability assay.
# SK-MEL3 = format: functional, cell-based, Homo sapiens, SK-MEL-3; details: Homo sapiens, SK-MEL3;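 note: growth inhibition of human SK-MEL-3 cells, read out with a cell viability assay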
# Description: SANGER: Inhibition of human SK-MEL-3 cell growth in a cell viability assay.
# A388 = format: functional, cell-based, Homo sapiens; details: Homo sapiens, A388;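 note: growth inhibition of human A388 cells, read out with a cell viability assay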
# Description: SANGER: Inhibition of human A388 cell growth in a cell viability assay.
# NCI-H2052 = format: functional, cell-based, Homo sapiens; details: Homo sapiens, NCI-H2052;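 note: growth inhibition of NCI-H2052 cells, read out with a cell viability assay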
# Description: SANGER: Inhibition of human NCI-H2052 cell growth in a cell viability assay.
# HN = format: functional, cell-based, Homo sapiens; details: Homo sapiens, HN
# Description: SANGER: Inhibition of human HN cell growth in a cell viability assay.
# EKVX = format: functional, cell-based, Homo sapiens; details: Homo sapiens, EKVX;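 note: growth inhibition of human EKVX cells, read out with a cell viability assay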
# Description: SANGER: Inhibition of human EKVX cell growth in a cell viability assay.
# U-87 MG = format: functional, cell-based, U-87MG ATCC; details: Homo sapiens;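 note: growth inhibition of the cells measured with a viability assay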
# Description: SANGER: Inhibition of human U-87-MG cell growth in a cell viability assay.
# SW948 = format: functional, cell-based, Homo sapiens; details: Homo sapiens, SW948;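 note: growth inhibition of SW948 cells, read out with a cell viability assay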
# Description: SANGER: Inhibition of human SW948 cell growth in a cell viability assay.
# RERF-LC-MS = format: functional, cell-based, Homo sapiens; details: Homo sapiens, RERF-LC-MS;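 note: growth inhibition of human RERF-LC-MS cells, read out by a cell viability assay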
# Description: SANGER: Inhibition of human RERF-LC-MS cell growth in a cell viability assay.
# ME-180 = format: functional, cell-based; details: Homo sapiens;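 note: cell viability assay measuring growth inhibition of ME-180 cells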
# Description: SANGER: Inhibition of human ME-180 cell growth in a cell viability assay.
# T84 = format: functional, cell-based, Homo sapiens; details: Homo sapiens, T84;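 note: growth inhibition measured with a cell viability readout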
# Description: SANGER: Inhibition of human T84 cell growth in a cell viability assay.
# NCI-H226 = format: functional, cell-based, Homo sapiens; details: Homo sapiens, NCI-H226;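 note: cell viability read-out used to gauge growth inhibition of the cells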
# Description: SANGER: Inhibition of human NCI-H226 cell growth in a cell viability assay.
# ES1 = format: functional, cell-based, Homo sapiens; details: Homo sapiens, ES1;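 note: growth inhibition of ES1 cells, read out with a cell viability assay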
# Description: SANGER: Inhibition of human ES1 cell growth in a cell viability assay.
# C8166 = format: functional, cell-based; details: Homo sapiens;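 note: growth inhibition of human C8166 cells measured by a cell viability assay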
# Description: SANGER: Inhibition of human C8166 cell growth in a cell viability assay.
# A-431 = format: functional, cell-based, Homo sapiens; details: Homo sapiens, A-431;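 note: growth inhibition of A-431 cells, determined with a cell viability read-out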
# Description: SANGER: Inhibition of human A431 cell growth in a cell viability assay.
# SF-295 = format: functional, cell-based, Homo sapiens; details: Homo sapiens, SF-295;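 note: growth inhibition of SF-295 cells, read out with a cell viability assay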
# Description: SANGER: Inhibition of human SF295 cell growth in a cell viability assay.
# OE19 = format: functional, cell-based, Homo sapiens; details: Homo sapiens, OE19;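 note: growth inhibition of OE19 cells, measured through a cell viability read-out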
# Description: SANGER: Inhibition of human OE19 cell growth in a cell viability assay.
# GCIY = format: functional, cell-based, Homo sapiens; details: Homo sapiens, GCIY;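 note: growth inhibition of the human GCIY cell line, read out by a cell viability assay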
# Description: SANGER: Inhibition of human GCIY cell growth in a cell viability assay.
# OAW-28 = format: functional, cell-based, Homo sapiens; details: Homo sapiens, OAW-28;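 note: growth inhibition of OAW-28 cells, read out with a cell viability assay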
# Description: SANGER: Inhibition of human OAW-28 cell growth in a cell viability assay.
# DK-MG = format: functional, cell-based, Homo sapiens; details: Homo sapiens, DK-MG;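 note: growth inhibition of DK-MG cells, read out with a cell viability assay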
# Description: SANGER: Inhibition of human DK-MG cell growth in a cell viability assay.
# HuTu80 = format: functional, cell-based, Homo sapiens, HUTU-80; details: Homo sapiens, HuTu80;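 note: growth inhibition of HuTu80 human cells, determined with a cell viability readout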
# Description: SANGER: Inhibition of human HUTU-80 cell growth in a cell viability assay.
# BPH-1 = format: functional, cell-based, Homo sapiens; details: Homo sapiens, BPH-1;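 note: cell viability assay measuring growth inhibition of human BPH-1 cells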
# Description: SANGER: Inhibition of human BPH-1 cell growth in a cell viability assay.
# SNB-75 = format: functional, cell-based, Homo sapiens; details: Homo sapiens, SNB-75;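 note: cell viability assay measuring growth inhibition of human SNB-75 cells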
# Description: SANGER: Inhibition of human SNB75 cell growth in a cell viability assay.
# MEG-01 = format: functional, cell-based; details: Homo sapiens;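 note: growth inhibition of MEG-01 cells, read out by a cell viability assay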
# Description: SANGER: Inhibition of human MEG-01 cell growth in a cell viability assay.
# KYSE-180 = format: functional, cell-based, Homo sapiens; details: Homo sapiens, KYSE-180;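 note: growth inhibition of KYSE-180 cells, read out with a cell viability assay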
# Description: SANGER: Inhibition of human KYSE-180 cell growth in a cell viability assay.
# Panc1005 = format: functional, cell-based, Homo sapiens; details: Homo sapiens, Panc1005;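 note: growth inhibition of human PANC-10-05 cells, measured by a cell viability assay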
# Description: SANGER: Inhibition of human PANC-10-05 cell growth in a cell viability assay.
# L-428 = format: functional, cell-based; details: Homo sapiens
# Description: SANGER: Inhibition of human L-428 cell growth in a cell viability assay.
# NCI-H1770 = format: functional, cell-based; details: Homo sapiens;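 note: growth inhibition of NCI-H1770 cells determined with a viability readout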
# Description: SANGER: Inhibition of human NCI-H1770 cell growth in a cell viability assay.
# 639-V = format: functional, cell-based, Homo sapiens; details: Homo sapiens, 639-V;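 note: growth inhibition of 639-V cells, read out with a cell viability assay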
# Description: SANGER: Inhibition of human 639-V cell growth in a cell viability assay.
# A673 = format: functional, cell-based, Homo sapiens; details: Homo sapiens, A673;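 note: growth inhibition of human A673 cells, read out through a cell viability assay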
# Description: SANGER: Inhibition of human A673 cell growth in a cell viability assay.
# NCI-H520 = format: functional, cell-based, Homo sapiens; details: Homo sapiens, NCI-H520;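 note: growth inhibition of NCI-H520 cells, measured by a cell viability assay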
# Description: SANGER: Inhibition of human NCI-H520 cell growth in a cell viability assay.
# UACC-893 = format: functional, cell-based, Homo sapiens; details: Homo sapiens, UACC-893
# Description: SANGER: Inhibition of human UACC-893 cell growth in a cell viability assay.
# NCI-H82 = format: functional, cell-based; details: Homo sapiens;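 note: growth inhibition of NCI-H82 cells, measured with a cell viability readout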
# Description: SANGER: Inhibition of human NCI-H82 cell growth in a cell viability assay.
# KM12 = format: functional, cell-based, Homo sapiens; details: Homo sapiens, KM12;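 note: KM12 cell growth inhibition, read out with a cell viability assay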
# Description: SANGER: Inhibition of human KM12 cell growth in a cell viability assay.
# NCI-H526 = format: functional, cell-based; details: Homo sapiens;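 note: growth inhibition of the human NCI-H526 cell line, measured by a cell viability assay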
# Description: SANGER: Inhibition of human NCI-H526 cell growth in a cell viability assay.
# U-118-MG = format: functional, cell-based, Homo sapiens; details: Homo sapiens, U-118-MG
# Description: SANGER: Inhibition of human U-118-MG cell growth in a cell viability assay.
# CAMA-1 = format: functional, cell-based, Homo sapiens; details: Homo sapiens, CAMA-1;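 note: growth inhibition of CAMA-1 cells, read out with a cell viability assay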
# Description: SANGER: Inhibition of human CAMA-1 cell growth in a cell viability assay.
# HCC1187 = format: functional, cell-based, Homo sapiens; details: Homo sapiens, HCC1187;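 note: growth inhibition of HCC1187 cells, read out with a cell viability assay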
# Description: SANGER: Inhibition of human HCC1187 cell growth in a cell viability assay.
# D-392MG = format: functional, cell-based, Homo sapiens; details: Homo sapiens, D-392MG
# HT1197 = format: functional, cell-based, Homo sapiens, HT-1197; details: Homo sapiens, HT1197
# Description: SANGER: Inhibition of human HT-1197 cell growth in a cell viability assay.
# LU-99A = format: functional, cell-based, Homo sapiens; details: Homo sapiens, LU-99A;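 note: growth inhibition of LU-99A cells, read out with a cell viability assay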
# Description: SANGER: Inhibition of human LU-99A cell growth in a cell viability assay.
# EC-GI-10 = format: functional, cell-based, Homo sapiens; details: Homo sapiens, EC-GI-10
# Description: SANGER: Inhibition of human EC-GI-10 cell growth in a cell viability assay.
smiles,measurement,setting,value
CCOc1nc(NC(=O)Cc2cc(OC)ccc2OC)cc(N)c1C#N,pIC50,HT-3,< 5.00
same,pIC50,SK-N-FI,< 5.00
same,pIC50,LAN-6,< 5.00
same,pIC50,NCI-H1838,< 5.00
same,pIC50,GCT,< 5.00
same,pIC50,LB1047-RCC,< 5.00
same,pIC50,HSC-3,< 5.00
same,pIC50,MOLT-16,< 5.00
same,pIC50,SW-620,< 5.00
same,pIC50,KYSE-520 cell line,< 5.00
same,pIC50,SK-MEL3,< 5.00
same,pIC50,A388,< 5.00
same,pIC50,NCI-H2052,< 5.00
same,pIC50,HN,< 5.00
same,pIC50,EKVX,< 5.00
same,pIC50,U-87 MG,< 5.00
same,pIC50,SW948,< 5.00
same,pIC50,RERF-LC-MS,< 5.00
same,pIC50,ME-180,< 5.00
same,pIC50,T84,< 5.00
same,pIC50,NCI-H226,< 5.00
same,pIC50,ES1,< 5.00
same,pIC50,C8166,< 5.00
same,pIC50,A-431,< 5.00
same,pIC50,SF-295; read-out: IC50,< 5.00
same,pIC50,OE19,< 5.00
same,pIC50,GCIY,< 5.00
same,pIC50,OAW-28,< 5.00
same,pIC50,DK-MG,< 5.00
same,pIC50,HuTu80,< 5.00
same,pIC50,BPH-1,< 5.00
same,pIC50,SNB-75,< 5.00
same,pIC50,MEG-01,< 5.00
same,pIC50,KYSE-180,< 5.00
same,pIC50,Panc1005,< 5.00
same,pIC50,L-428,< 5.00
same,pIC50,NCI-H1770,< 5.00
same,pIC50,639-V,< 5.00
same,pIC50,A673,< 5.00
same,pIC50,NCI-H520,< 5.00
same,pIC50,UACC-893,< 5.00
same,pIC50,NCI-H82,< 5.00
same,pIC50,KM12,< 5.00
same,pIC50,NCI-H526,< 5.00
same,pIC50,U-118-MG,< 5.00
same,pIC50,CAMA-1,< 5.00
same,pIC50,HCC1187,< 5.00
same,pIC50,D-392MG,< 5.00
same,pIC50,HT1197,< 5.00
same,pIC50,LU-99A,< 5.00
CC(=O)O[C@@]12CO[C@@H]1C[C@H](O)[C@@]1(C)C(=O)[C@H](O)C3=C(C)[C@@H](OC(=O)[C@H](O)[C@@H](NC(=O)OC(C)(C)C)c4ccccc4)C[C@@](O)([C@@H](OC(=O)c4ccccc4)[C@H]21)C3(C)C [DOCETAXEL],pIC50,HT-3,8.55
same,pIC50,SK-N-FI,< 8.00
same,pIC50,LAN-6,< 8.00
same,pIC50,NCI-H1838,< 8.00
same,pIC50,GCT,8.75
same,pIC50,LB1047-RCC,8.06
same,pIC50,HSC-3,9.88
same,pIC50,MOLT-16,8.08
same,pIC50,SW-620,8.40
same,pIC50,KYSE-520 cell line,8.15
same,pIC50,SK-MEL3,< 8.00
same,pIC50,A388,8.58
same,pIC50,NCI-H2052,8.14
same,pIC50,HN,9.12
same,pIC50,EKVX,< 8.00
same,pIC50,U-87 MG,8.45
same,pIC50,SW948,< 8.00
same,pIC50,RERF-LC-MS,8.95
same,pIC50,ME-180,8.77
same,pIC50,T84,< 8.00
same,pIC50,NCI-H226,8.43
same,pIC50,ES1,9.11
same,pIC50,EC-GI-10,9.23
same,pIC50,C8166,< 8.00
same,pIC50,A-431,< 8.00
same,pIC50,SF-295,< 8.00
same,pIC50,OE19,8.25
same,pIC50,GCIY,< 8.00
same,pIC50,OAW-28,< 8.00
same,pIC50,DK-MG,8.07
same,pIC50,BPH-1,8.99
same,pIC50,SNB-75,8.42
same,pIC50,MEG-01,< 8.00
same,pIC50,KYSE-180,8.87
same,pIC50,Panc1005,< 8.00
same,pIC50,L-428,< 8.00
same,pIC50,NCI-H1770,8.47
same,pIC50,639-V,9.19
same,pIC50,A673,8.63
same,pIC50,NCI-H520,8.43
same,pIC50,UACC-893,< 8.00
same,pIC50,NCI-H82,8.09
same,pIC50,KM12,8.39
same,pIC50,NCI-H526,8.75
same,pIC50,U-118-MG,< 8.00
same,pIC50,CAMA-1,8.88
same,pIC50,D-392MG,< 8.00
same,pIC50,HT1197,< 8.00
same,pIC50,LU-99A,< 8.00
O=c1cc(-c2cccc3c2Sc2ccccc2S3)oc(N2CCOCC2)c1 [KU-55933],pIC50,HT-3,< 5.00
same,pIC50,SK-N-FI,< 5.00
same,pIC50,LAN-6,< 5.00
same,pIC50,NCI-H1838,< 5.00
same,pIC50,GCT,< 5.00
same,pIC50,LB1047-RCC,< 5.00
same,pIC50,HSC-3,< 5.00
same,pIC50,MOLT-16,< 5.00
same,pIC50,SW-620,< 5.00
same,pIC50,KYSE-520 cell line,< 5.00
same,pIC50,SK-MEL3,5.08
same,pIC50,A388,< 5.00
same,pIC50,NCI-H2052,< 5.00
same,pIC50,HN,< 5.00
same,pIC50,EKVX,< 5.00
same,pIC50,U-87 MG,< 5.00
same,pIC50,SW948,< 5.00
same,pIC50,RERF-LC-MS,< 5.00
same,pIC50,ME-180,< 5.00
same,pIC50,T84,< 5.00
same,pIC50,NCI-H226,< 5.00
same,pIC50,ES1,< 5.00
same,pIC50,C8166,< 5.00
same,pIC50,A-431,< 5.00
same,pIC50,SF-295; read-out: IC50,< 5.00
same,pIC50,OE19,< 5.00
same,pIC50,GCIY,< 5.00
same,pIC50,OAW-28,< 5.00
same,pIC50,DK-MG,< 5.00
same,pIC50,HuTu80,< 5.00
same,pIC50,BPH-1,< 5.00
same,pIC50,SNB-75,< 5.00
same,pIC50,MEG-01,< 5.00
same,pIC50,KYSE-180,< 5.00
same,pIC50,Panc1005,< 5.00
same,pIC50,L-428,< 5.00
same,pIC50,NCI-H1770,< 5.00
same,pIC50,639-V,< 5.00
same,pIC50,A673,< 5.00
same,pIC50,NCI-H520,< 5.00
same,pIC50,UACC-893,< 5.00
same,pIC50,NCI-H82,< 5.00
same,pIC50,KM12,5.04
same,pIC50,NCI-H526,< 5.00
same,pIC50,U-118-MG,< 5.00
same,pIC50,CAMA-1,< 5.00
same,pIC50,HCC1187,< 5.00
same,pIC50,D-392MG,< 5.00
same,pIC50,HT1197,< 5.00
same,pIC50,LU-99A,< 5.00
C=CCNC1=C2C[C@@H](C)C[C@H](OC)[C@H](O)[C@@H](C)/C=C(\C)[C@H](OC(N)=O)[C@@H](OC)/C=C\C=C(/C)C(=O)NC(=CC1=O)C2=O [TANESPIMYCIN],pIC50,HT-3,6.32
same,pIC50,SK-N-FI,< 6.00
same,pIC50,LAN-6,< 6.00
same,pIC50,NCI-H1838,< 6.00
same,pIC50,GCT,< 6.00
same,pIC50,LB1047-RCC,7.28
same,pIC50,HSC-3,8.03
same,pIC50,MOLT-16,< 6.00
same,pIC50,SW-620,7.15
same,pIC50,KYSE-520 cell line,6.74
same,pIC50,SK-MEL3,6.09
same,pIC50,A388,6.12
same,pIC50,NCI-H2052,< 6.00
same,pIC50,HN,7.37
same,pIC50,EKVX,< 6.00
same,pIC50,U-87 MG,6.99
same,pIC50,SW948,< 6.00
same,pIC50,RERF-LC-MS,6.13
same,pIC50,ME-180,7.54
same,pIC50,T84,< 6.00
same,pIC50,NCI-H226,< 6.00
same,pIC50,ES1,< 6.00
same,pIC50,C8166,< 6.00
same,pIC50,A-431,7.09
same,pIC50,SF-295; read-out: IC50,7.19
same,pIC50,OE19,7.51
same,pIC50,GCIY,6.04
same,pIC50,OAW-28,< 6.00
same,pIC50,DK-MG,6.43
same,pIC50,HuTu80,< 6.00
same,pIC50,BPH-1,6.87
same,pIC50,SNB-75,6.91
same,pIC50,MEG-01,< 6.00
same,pIC50,KYSE-180,7.03
same,pIC50,Panc1005,6.39
same,pIC50,L-428,< 6.00
same,pIC50,NCI-H1770,< 6.00
same,pIC50,639-V,6.82
same,pIC50,A673,< 6.00
same,pIC50,NCI-H520,6.41
same,pIC50,UACC-893,6.20
same,pIC50,NCI-H82,< 6.00
same,pIC50,KM12,7.20
same,pIC50,NCI-H526,< 6.00
same,pIC50,U-118-MG,6.56
same,pIC50,CAMA-1,6.89
same,pIC50,HCC1187,< 6.00
same,pIC50,D-392MG,6.05
same,pIC50,HT1197,< 6.00
same,pIC50,LU-99A,7.21
